Here are results for two compounds from patent US4684630A, “Method of parenterally delivering drugs and related compositions” (priority 1985, dated 1987).

Structures are written as SMILES. Converted amounts (≈) assume the structure as drawn. Like-named read-outs stand apart in the source and are kept apart here.

A short description of data set [1]: Precipitation on further dilution of the organic-aqueous solutions with sterile intravenous solutions. The following applies: solutions of Example 3 diluted with 5% dextrose-0.45% saline or 0.9% saline; 250 ml/hr vehicle, 6 ml/hr drug solution, 12 hours. The class given is physicochemical. The method, then:
The organic-aqueous solutions of Example 3 are further diluted with two standard sterile intravenous solutions: a 5% dextrose-0.45% saline solution and a 0.9% saline solution. The aqueous delivery vehicles were delivered at a rate of 250 ml/hr. The concentrated drug solutions (approx. 10 mg/ml) were introduced through a side arm tubing located several inches above the injection point for 12 hours at the rate of 6 ml/hr. measured by a calibrated infusion pump. […] At this rate, the effective dosage concentration per unit volume of the final organic-aqueous solution was approximately 1 mg/ml. The final diluted organic-aqueous solutions were filtered using Wattman filter paper.

Data set [2] can be described thus: physchem. The class given is physicochemical. The method, then: (§1) Two neat, anhydrous solutions of ara-AC dissolved in DMSO and DMA, respectively, were prepared. […] Ara-AC has a solubility of approximately 20 mg/ml in water. The effective dose for ara-AC is 700 mg. […] At higher temperatures (e.g., 50°-60° C.), the ara-AC has proven stable for at least 3 weeks. Thus, the solutions of ara-AC in DMSO and DMA appear to be stable enough for commercial production, handling, and storage. By contrast, a solution of ara-AC in water would degrade 10% in 1.8 hours at 25° C.

The format of data set [3] is physicochemical. The following applies: for time for which ara-AC has proven stable: neat, higher temperatures (e.g., 50°-60° C.). The method, then:
as §1

Data set [4] in a line: Degradation kinetics of ara-AC in aqueous and mixed organic-aqueous solvent systems at 25° C. (reverse phase HPLC).
The mark [5] stands for this setting: Buffer (phosphate 0.01 M, pH 7.0, μ = 0.1 with NaCl), ara-AC 0.25 mg/ml, measured pH 7.0, 25° C.
Setting [6] is: Distilled H2O, ara-AC 0.25 mg/ml, measured pH 6.8, 25° C.

Consider `Nc1ncn([C@@H]2O[C@H](CO)[C@@H](O)[C@H]2O)c(=O)n1` [5-AC, 5-azacytidine], for which the “precipitation or other undesirable effects” value in data set [1] is recorded as “No precipitation or other undesirable effects”.
What is called solubility is the dissolved amount per volume that the medium holds. Turning to `Nc1ncn([C@@H]2O[C@H](CO)[C@@H](O)[C@@H]2O)c(=O)n1` [ara-AC, 5-azacytosine arabinoside], the solubility was 170 mg/mL (≈ 696 mM) in data set [2] (dma, organic solvent or mixture); 370 mg/mL (≈ 1520 mM) in data set [2] (dmso, organic solvent or mixture); around 20 mg/mL (≈ 81.9 mM) in data set [2] (water). The “precipitation or other undesirable effects” value in data set [1] is recorded as “No precipitation or other undesirable effects”. Moreover, the “degradation during 5 months” value in data set [3] is given as “no observable degradation”. For the same compound, the “time for which ara-AC has proven stable” value in data set [3] (anhydrous DMA solution) and in data set [3] (anhydrous DMSO solution) was “at least 3 weeks” throughout. Moreover, the t90 in data set [4] (5% DMA in Buffer (phosphate 0.01 M, pH 6.8), ara-AC 5.0 mg/ml, apparent pH 7.0, 25° C.) stood at 1.9 h; in data set [4] (5% DMSO in Buffer (phosphate 0.01 M, pH 6.8), ara-AC 5.0 mg/ml, apparent pH 7.0, 25° C.), 2.0 h; in data set [4] (10% DMA in Buffer (phosphate 0.01 M, pH 6.8), ara-AC 5.0 mg/ml, apparent pH 7.1, 25° C.), 2.2 h; in data set [4] (10% DMSO in Buffer, ara-AC 5.0 mg/ml, apparent pH 7.1, 25° C.), 2.5 h; in data set [4] (25% DMA in Buffer (phosphate 0.01 M, pH 6.8), ara-AC 5.0 mg/ml, apparent pH 7.4, 25° C.), 2.7 h; in data set [4] (25% DMSO in Buffer, ara-AC 5.0 mg/ml, apparent pH 7.4, 25° C.) it was 2.8 h. The t90 amounted to 4.5 h in data set [4] (50% DMA in Buffer (phosphate 0.01 M, pH 6.8), ara-AC 5.0 mg/ml, apparent pH 8.1, 25° C.); 6.0 h in data set [4] (55% DMA in Buffer (phosphate 0.01 M, pH 6.8), ara-AC 5.0 mg/ml, apparent pH 8.3, 25° C.); 15.0 h in data set [4] (60% DMA in Buffer (phosphate 0.03 M, pH 6.0, μ = 0.3 M with NaCl), ara-AC 5.0 mg/ml, apparent pH 7.4, 25° C.); 16.0 h in data set [4] (60% DMSO in Buffer (phosphate 0.03 M, pH 6.0, μ = 0.3 M with NaCl), ara-AC 5.0 mg/ml, apparent pH 7.8, 25° C.); 16.0 h in data set [4] (65 wt. % DMA-35 wt. % water solution); 28.0 h in data set [4] (70% DMSO in H2O, ara-AC 5.0 mg/ml, apparent pH 8.0, 25° C.). Besides, the t90 was 28.0 h in data set [4] (70 wt % DMSO-30 wt. % water solution), 1.7 h in data set [4] (setting [5]) and 1.8 h in data set [4] (setting [6]). Further, the “Kobs (observed degradation rate constant)” value is 1.55 × 10^-2 hr.^-1 in data set [4] (setting [5]) and 1.34 × 10^-2 hr.^-1 in data set [4] (setting [6]). Moreover, the “t90 (10% decomposition in water)” value in data set [4] (water, 25° C.) turned out to be 1.8 h.
